According to patent publication US11883455B2, “Nigella sativa oil composition” (N.S. OILS LTD., priority 2018, dated 2024):

System: production of nitric oxide (NO) by murine macrophages (RAW 264.7 cell line) activated by lipopolysaccharide (LPS)
Test: Nitric oxide (NO) release by LPS-activated RAW 264.7 macrophages, Griess Reagent System
Format: cell-based
Method: In addition, positive control cells were treated with 20 μM dexamethasone.

| SMILES | NO inhibition by carvacrol alone (carvacrol only 0.05%, 0.1%, 0.15% solutions, dilutions 1:500,000, 1:200,000, 1:100,000) | NO inhibition by p-cymene alone (p-cymene only 0.1%, 0.25%, 0.5%, 0.75% solutions, final dilution 1:200,000) |
| --- | --- | --- |
| Cc1ccc(C(C)C)cc1O [carvacrol] | None of the carvacrol-only dilutions caused any NO inhibition |  |
| Cc1ccc(C(C)C)cc1 [p-cymene] |  | None of the p-cymene-only dilutions caused any NO inhibition |
